Assay results published in BindingDB's records for patent US12522634 (Farsight Medical Technology (Shanghai), 2026).
Starred links: 1 amine or outer side, 2 acyl side, 3 side chain; linkers in the order of their positions; H or OH if unused. Non-standard residues stand in square brackets, D forms with d. Residues, ends and D or L forms follow the SMILES beside them. MeBmt = C/C=C/C[C@@H](C)[C@@H](O)[C@H](NC)C(=O)O; X1 = CN([C@H](OCCN1CCOCC1)C(=O)[*:2])[*:1]; X2 = CN(C)CCO[C@H](C(=O)[*:2])N(C)[*:1]; NMeL = CN[C@@H](CC(C)C)C(=O)O; NMeV = CN[C@H](C(=O)O)C(C)C; Nva = CCC[C@H](N)C(=O)O

Legend:
[1] = target: Peptidyl-prolyl cis-trans isomerase F, mitochondrial (Human, UniProt P30405); test: Cyclophilin Peptidyl-Prolyl Isomerase Functional Assay
Chain of Peptidyl-prolyl cis-trans isomerase F, mitochondrial (P30405 whole entry): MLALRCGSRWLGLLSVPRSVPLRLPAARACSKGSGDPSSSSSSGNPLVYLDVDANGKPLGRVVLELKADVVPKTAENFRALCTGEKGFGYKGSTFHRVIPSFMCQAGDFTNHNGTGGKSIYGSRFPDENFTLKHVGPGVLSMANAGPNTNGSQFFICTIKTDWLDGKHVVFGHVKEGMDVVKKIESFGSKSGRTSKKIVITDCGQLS

[2] = target: Peptidyl-prolyl cis-trans isomerase A (Homo sapiens, UniProt P62937); test: as above
Chain of Peptidyl-prolyl cis-trans isomerase A (P62937 whole entry): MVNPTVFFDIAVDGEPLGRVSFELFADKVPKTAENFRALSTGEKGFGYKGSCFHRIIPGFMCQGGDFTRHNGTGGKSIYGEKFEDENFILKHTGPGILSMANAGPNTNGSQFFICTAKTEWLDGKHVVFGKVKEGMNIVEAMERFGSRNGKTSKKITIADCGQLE

Row | Ki [1] [nM] | Ki [2] [nM] | SMILES
1 | 35 | 39 | C/C=C/C[C@@H](C)[C@@H](O)[C@H]1C(=O)N[C@@H](CCC)C(=O)N(C)[C@H](OCCN2CCOCC2)C(=O)N(C)[C@@H](CC(C)C)C(=O)N[C@@H](C(C)C)C(=O)N(C)[C@@H](CC(C)C)C(=O)N[C@@H](C)C(=O)N[C@H](C)C(=O)N(C)[C@@H](CC(C)C)C(=O)N(C)[C@@H](CC(C)C)C(=O)N(C)[C@@H](C(C)C)C(=O)N1C [US12522634, Compound 8] (cyclo(A[dA][NMeL][NMeL][NMeV][MeBmt][Nva][X1][NMeL]V[NMeL]))
2 | 5.9 | 9.4 | C/C=C/C[C@@H](C)[C@@H](O)[C@H]1C(=O)N[C@@H](CCC)C(=O)N(C)[C@H](OCCN(C)C)C(=O)N(C)[C@@H](CC(C)C)C(=O)N[C@@H](C(C)C)C(=O)N(C)[C@@H](CC(C)C)C(=O)N[C@@H](C)C(=O)N[C@H](C)C(=O)N(C)[C@@H](CC(C)C)C(=O)N(C)[C@@H](CC(C)C)C(=O)N(C)[C@@H](C(C)C)C(=O)N1C [US12522634, Compound 7] (cyclo(A[dA][NMeL][NMeL][NMeV][MeBmt][Nva][X2][NMeL]V[NMeL]))
3 | 5.1 | – | C/C=C/C[C@@H](C)[C@@H](O)[C@H]1C(=O)N[C@@H](C(C)C)C(=O)N(C)[C@H](OCCN(C)C)C(=O)N(C)[C@@H](CC(C)C)C(=O)N[C@@H](C(C)C)C(=O)N(C)[C@@H](CC(C)C)C(=O)N[C@@H](C)C(=O)N[C@H](C)C(=O)N(C)[C@@H](CC(C)C)C(=O)N(C)[C@@H](CC(C)C)C(=O)N(C)[C@@H](C(C)C)C(=O)N1C [US12522634, Compound 3] (cyclo(A[dA][NMeL][NMeL][NMeV][MeBmt]V[X2][NMeL]V[NMeL]))
4 | 4.1 | 2.3 | C/C=C/C[C@@H](C)[C@@H](O)[C@H]1C(=O)N[C@@H](C(C)C)C(=O)N(C)[C@H](OCCN2CCOCC2)C(=O)N(C)[C@@H](CC(C)C)C(=O)N[C@@H](C(C)C)C(=O)N(C)[C@@H](CC(C)C)C(=O)N[C@@H](C)C(=O)N[C@H](C)C(=O)N(C)[C@@H](CC(C)C)C(=O)N(C)[C@@H](CC(C)C)C(=O)N(C)[C@@H](C(C)C)C(=O)N1C [US12522634, Compound 4] (cyclo(A[dA][NMeL][NMeL][NMeV][MeBmt]V[X1][NMeL]V[NMeL]))
